These are literature values, as cited in patent US4127536A, “Novel tricosapeptides, intermediates therefor and pharmaceutical compositions and methods employing said tricosapeptides” (priority 1977, dated 1978).

In data set [1] the test system is partially purified brain opiate receptor sites. The conditions noted are these: natural peptide.
Data set [2] has as its system rat. The conditions noted are these: injected directly into the brain of the rat.

“H-Tyr-Gly-Gly-Phe-Met-OH [methionine enkephalin]”: the “binding to partially purified brain opiate receptor sites” value in data set [1] is recorded as “binds stereo-specifically”. For the same substance, in data set [2], the analgesic activity entry was “only weak analgesic agent of short duration”.
